From EPA's ToxRefDB 2

Key:
rat [1] = conditions: Subchronic oral toxicity in rodents, sprague dawley, Feed, dose end: 90 day, group: systemic
hamster = conditions: Chronic toxicity, Oral, Feed, dose end: 24 month, group: systemic
rat [2] = conditions: Prenatal developmental toxicity study, sprague dawley, Oral, Gavage/Intubation, dose end: 20 GD
rat [3] = conditions: Combined chronic toxicity/carcinogenicity; sprague dawley; Oral; Feed; dose end: 24 month; group: systemic; systemic / in life observation / body weight / body weight
rat [4] = conditions: Multigenerational reproductive toxicity study, sprague dawley, Oral, Feed, dose end: 2 generation
dog = conditions: Chronic toxicity, beagle, Oral, Capsule, dose end: 12 month, group: systemic
mouse = conditions: Carcinogenicity, cd1, Oral, Feed, dose end: 24 month, group: systemic
[5] = systemic / in life observation / body weight / body weight gain + systemic / organ weight / heart / relative to body weight
[6] = systemic / in life observation / mortality / mortality + systemic / pathology microscopic / kidney / inflammation
[7] = systemic / in life observation / mortality / mortality + systemic / pathology microscopic / kidney / inflammation + systemic / pathology …
[8] = group: developmental, developmental / developmental malformation / bone / misaligned + developmental / developmental malformation / general / hemorrhage + …
[9] = group: maternal, systemic / in life observation / body weight / body weight + systemic / in life observation / body weight / body weight gain + systemic / in…
[10] = group: offspring, systemic / in life observation / body weight / offspring (pup) weight
[11] = group: offspring, systemic / in life observation / body weight / offspring (pup) weight + systemic / organ weight / brain / absolute + systemic / organ weight…
[12] = group: parental, systemic / organ weight / liver / relative to body weight + systemic / hematology / hematocrit (hct) / hematocrit (hct) + systemic / …
[13] = group: parental, systemic / organ weight / liver / relative to body weight + systemic / in life observation / body weight / body weight + systemic / in life …
[14] = group: reproductive, reproductive / offspring survival early / litter size / litter size
[15] = systemic / in life observation / body weight / body weight gain + systemic / organ weight / liver / relative to body weight
[16] = systemic / in life observation / body weight / body weight gain + systemic / organ weight / liver / relative to body weight + systemic / …
[17] = systemic / in life observation / food consumption / food consumption

O=[N+]([O-])c1ccc(O)cc1C(F)(F)F [3-Trifluoromethyl-4-nitrophenol]
LOAEL (rat [1]; [5]): 146 mg/kg/day | NEL (rat [1]; [5]): 25 mg/kg/day | NOAEL (rat [1]; [5]): 81 mg/kg/day | LEL (rat [1]; systemic / organ weight / heart / relative to body weight): 45 mg/kg/day | LOAEL (hamster; [6]): 24.9 mg/kg/day | NOAEL (hamster; [6]): < 24.9 mg/kg/day | LEL (hamster; [7]): 24.9 mg/kg/day | NEL (hamster; [7]): < 24.9 mg/kg/day

CCSC(=O)N(CC(C)C)CC(C)C [Butylate]
LEL (rat [2]; [8]): 400 mg/kg/day | LOAEL (rat [2]; [8]): 400 mg/kg/day | NEL (rat [2]; [8]): 40 mg/kg/day | NOAEL (rat [2]; [8]): 40 mg/kg/day | LEL (rat [2]; [9]): 400 mg/kg/day | LOAEL (rat [2]; [9]): 400 mg/kg/day | NEL (rat [2]; [9]): 40 mg/kg/day | NOAEL (rat [2]; [9]): 40 mg/kg/day | LEL (rat [3]): 100 mg/kg/day | LOAEL (rat [3]): 100 mg/kg/day | NEL (rat [3]): 50 mg/kg/day | NOAEL (rat [3]): 50 mg/kg/day | NEL (rat [4]; [10]): 10 mg/kg/day | NOAEL (rat [4]; [10]): 10 mg/kg/day | LEL (rat [4]; [11]): 50 mg/kg/day | LOAEL (rat [4]; [11]): 50 mg/kg/day | NEL (rat [4]; [12]): 10 mg/kg/day | NOAEL (rat [4]; [12]): 10 mg/kg/day | LEL (rat [4]; [13]): 50 mg/kg/day | LOAEL (rat [4]; [13]): 50 mg/kg/day | LEL (rat [4]; [14]): 200 mg/kg/day | LOAEL (rat [4]; [14]): > 200 mg/kg/day | NEL (rat [4]; [14]): 50 mg/kg/day | NOAEL (rat [4]; [14]): ≥ 200 mg/kg/day | LEL (dog; [15]): 25 mg/kg/day | LOAEL (dog; [15]): 25 mg/kg/day | NEL (dog; [16]): 5 mg/kg/day | NOAEL (dog; [16]): 5 mg/kg/day | LOAEL (mouse; systemic / in life observation / body weight / body weight + systemic / pathology microscopic / kidney / amyloid deposition + systemic / …): 80 mg/kg/day | LEL (mouse; [17]): 20 mg/kg/day | NEL (mouse; [17]): < 20 mg/kg/day | NOAEL (mouse; systemic / in life observation / food consumption / food consumption + systemic / in life observation / body weight / body weight + systemic…): 20 mg/kg/day
